Consider 1 molecule from publication PMC8387043, “Host Poly(A) Polymerases PAPD5 and PAPD7 Provide Two Layers of Protection That Ensure the Integrity and Stability of Hepatitis B Virus RNA” (Journal of Virology, 2021).

In one data set the test system is HIV. Nature of the data set: Antiviral selectivity panel, CPE in CEM-SS cells. The format is cell-based. The settings on record: Human immunodeficiency virus 1.
Data set [1] deals with panel of 10 different RNA and DNA viruses. Put plainly: Antiviral selectivity panel (summary statement). The data set is classed as cell-based. The settings on record: read-out: EC50 against a panel of 10 different RNA and DNA viruses. On the procedure: HepG2.2.15 (30,000 cells/well) were plated in 96-well collagen-treated plates and incubated at 37°C. Compounds were half-log serially diluted and added in duplicate to 96-well microtiter plates. The plates were incubated for a total duration of 6 days, after which the culture medium was removed for the HBsAg and HBeAg CLIA assays (AutoBio Diagnostics Co., China) performed according to the manufacturer’s instructions. Secreted HBV DNA was extracted (Realtime Ready cell lysis kit; Roche, Mannheim, Germany) and quantified in a qPCR assay (LightCycler 480 SYBR green I master mix; Roche) with the 5′-[…]-3′ (sense) and 5′-[…]-3′ (antisense) primers using the PCR conditions of denaturing at 95°C for 5 min followed by 40 cycles of amplification at 95°C for 15 s and 60°C for 30 s. Antiviral selectivity studies against a panel of different DNA and RNA viruses were performed at ImQuest BioSicences (Frederick, MD, USA). Briefly, test compounds were evaluated using 6 doses, including the highest concentration of 30 μM and five serial half-logarithmic dilutions in triplicate for the antiviral assays.

The test system of data set [2] is HBV. Nature of the data set: HBV replication intermediates and viral proteins in HepG2.2.15 cells (Northern, Western, particle gel, Southern). The data set is classed as cell-based, hepatitis B virus. The settings on record: HepG2.2.15, 6 days; ETV, GLS-4, cmpdA 1 μM; AB-452 70 nM. On the procedure: Total cellular RNA was extracted from HepG2.2.15 or HepAD38 cells treated with or without antiviral compounds using TRIzol reagent according to the manufacturer's directions (Thermo Fisher Scientific, Waltham, MA). Northern blotting was performed as described previously ([1]). Briefly, total RNA was separated in a 1.5% agarose gel and transferred onto an Amersham Hybond-XL membrane (product no. GERPN303S; GE Healthcare, IL, USA). Membranes were probed with an [α-^32P]UTP (PerkinElmer, CT, USA)-labeled minus strand-specific full-length HBV riboprobe (3.2 kb) transcribed from plasmid pSP65_HBV(+) DNA. Membranes were exposed to a phosphoimager screen, and the hybridization signals were quantified using Image Studio software (Li-Cor Biosciences, NE, USA).
Total intracellular viral core-associated DNA was extracted as described previously ([1]) and analyzed by Southern blotting hybridization with an [α-^32P]UTP-labeled full-length HBV riboprobe (3.2 kb) that specifically hybridized to minus strand of viral DNA. Membranes were exposed to a phosphoimager screen, and the hybridization signals were quantified using Image Studio software.
HepG2.2.15 or HepAD38 cells cultured in a 12-well plate were lysed with 200 μl Laemmli sample buffer (Bio-Rad, PA, USA) supplemented with 2.5% 2-mercaptoethanol (Sigma-Aldrich, MO, USA). […]

A further data set in a line: in vitro. The format is cell-based. The settings on record: human. The text has this:
TABLE 3 Cytotoxicity of AB-452 against cells derived from various tissues | column: AB-452 CC50 (μM)

A further data set has as its system HBV PRE. Put plainly: HBV PRE cis-element reporter plasmids (HBsAg or Gluc) transfected in Huh-7 cells. As to conditions: Hepatitis B virus.
Data set [3] deals with HBV. Put plainly: Antiviral assay in HBV-infected HepG2-NTCP cells. The format is cell-based. The settings on record: Hepatitis B virus.
Another data set relates to HCMV. Put plainly: Antiviral selectivity panel, CPE in MRC-5 cells. The settings on record: Human betaherpesvirus 5, MRC5; MRC-5, CPE. The format is cell-based, human cytomegalovirus.

Molecules are shown by their SMILES. Where two headings read alike, the source gives them in different places.

By EC50 is commonly meant the midpoint of the concentration-response curve. What is called CC50 is the concentration that lowers cell viability or growth by half. A low value points to greater toxicity to the cells. As for `COCCCOc1cc2c(nc1OC)-c1cc(=O)c(C(=O)O)cn1[C@H](C(C)C)C2` [AB-452], the EC50 is over 30 µM in the data set with HIV; over 30 µM in data set [1]; 4.2 nM with HBV PRE (120 h, read-out: EC50, Gluc_dHBx (Gluc activity)); 10 nM in the data set on HBV PRE (120 h, read-out: EC50, H133_Gluc (Gluc activity)); over 100 nM in the data set with HBV PRE (Huh-7, 120 h, read-out: EC50, Gluc_rcSLα (Gluc activity)); 2.5 nM with HBV PRE (Huh-7, 120 h, read-out: EC50, H133 (HBsAg)). The half-maximal effective concentration (EC50) was 4.3 nM in the data set on HBV PRE (Huh-7, 120 h, read-out: EC50, H133_dLa (HBsAg)); 4 ± 2.3 nM in the data set with HBV [3] (read-out: HBeAg EC50); 6.8 ± 1.8 nM in the data set on HBV [3] (read-out: HBsAg EC50); over 30 µM with HCMV. In the data set with HBV [2], the “Effect on HBV replication intermediates and viral proteins” value is “reducing intracellular pgRNA, sRNA, core protein, native capsids, encapsidated pgRNA, and replicating HBV DNA”. Besides, the cytotoxic concentration (CC50) in the data set “in vitro” was over 30 µM.
